Test results as given in the NIST ThermoML archive (doi:10.1016/j.jct.2017.06.001).

Assay: xn = mol fraction of the nth substance listed
Settings: 100 kPa, Liquid; for speed of sound: Frequency=5 MHz, Pulse-echo method; for mass density: Vibrating tube method

OCCCCCO [1,5-pentanediol] + O
Settings | mass density [kg/m3] | speed of sound [m/s]
313.15 K, x1 = 0.005 | 991.7 | –
313.15 K, x1 = 0.0101 | 991.52 | –
313.15 K, x1 = 0.0196 | 991.54 | –
313.15 K, x1 = 0.0251 | 991.82 | –
313.15 K, x1 = 0.0304 | 992.13 | –
313.15 K, x1 = 0.05 | 992.81 | –
313.15 K, x1 = 0.0769 | 993.24 | –
313.15 K, x1 = 0.1002 | 993.63 | –
313.15 K, x1 = 0.1124 | – | 1653.6
313.15 K, x1 = 0.1158 | – | 1654.3
313.15 K, x1 = 0.1193 | – | 1654.9
313.15 K, x1 = 0.1244 | – | 1655.7
313.15 K, x1 = 0.1287 | – | 1656.2
313.15 K, x1 = 0.1321 | – | 1656.6
313.15 K, x1 = 0.1361 | – | 1656.9
313.15 K, x1 = 0.1413 | – | 1657.3
313.15 K, x1 = 0.1438 | 993.61 | –
313.15 K, x1 = 0.1453 | – | 1657.5
313.15 K, x1 = 0.1493 | – | 1657.7
313.15 K, x1 = 0.1538 | – | 1657.8
313.15 K, x1 = 0.1569 | – | 1657.8
313.15 K, x1 = 0.1592 | – | 1657.9
313.15 K, x1 = 0.1624 | – | 1657.9
313.15 K, x1 = 0.1645 | – | 1657.9
313.15 K, x1 = 0.1677 | – | 1657.8
313.15 K, x1 = 0.1703 | – | 1657.8
313.15 K, x1 = 0.174 | – | 1657.7
313.15 K, x1 = 0.1785 | – | 1657.6
313.15 K, x1 = 0.1796 | – | 1657.5
313.15 K, x1 = 0.1845 | 993.02 | –
313.15 K, x1 = 0.1854 | – | 1657.3
313.15 K, x1 = 0.1882 | – | 1657.2
313.15 K, x1 = 0.1986 | – | 1656.6
313.15 K, x1 = 0.2089 | – | 1656
313.15 K, x1 = 0.2219 | – | 1655
313.15 K, x1 = 0.2336 | – | 1654.1
313.15 K, x1 = 0.2458 | – | 1653
313.15 K, x1 = 0.2503 | 991.87 | –
313.15 K, x1 = 0.2586 | – | 1651.8
313.15 K, x1 = 0.2742 | – | 1650.3
313.15 K, x1 = 0.2871 | – | 1649
313.15 K, x1 = 0.3 | 990.74 | –
313.15 K, x1 = 0.3037 | – | 1647.3
313.15 K, x1 = 0.3173 | – | 1645.8
313.15 K, x1 = 0.3343 | 989.99 | –
313.15 K, x1 = 0.3466 | – | 1642.6
313.15 K, x1 = 0.366 | – | 1640.3
313.15 K, x1 = 0.3864 | – | 1637.9
313.15 K, x1 = 0.401 | – | 1636.1
313.15 K, x1 = 0.4171 | 988.35 | –
313.15 K, x1 = 0.4198 | – | 1633.7
313.15 K, x1 = 0.4339 | – | 1631.8
313.15 K, x1 = 0.4516 | – | 1629.5
313.15 K, x1 = 0.454 | 987.5 | –
313.15 K, x1 = 0.4639 | – | 1627.8
313.15 K, x1 = 0.4723 | – | 1626.7
313.15 K, x1 = 0.4915 | – | 1624
313.15 K, x1 = 0.5003 | 986.6 | –
313.15 K, x1 = 0.5111 | – | 1621.3
313.15 K, x1 = 0.5315 | – | 1618.4
313.15 K, x1 = 0.5362 | 985.8 | –
313.15 K, x1 = 0.5529 | – | 1615.4
313.15 K, x1 = 0.5804 | – | 1611.5
313.15 K, x1 = 0.602 | – | 1608.5
313.15 K, x1 = 0.6163 | – | 1606.5
313.15 K, x1 = 0.6177 | 984.4 | –
313.15 K, x1 = 0.6349 | – | 1604
313.15 K, x1 = 0.6478 | 983.9 | –
313.15 K, x1 = 0.6533 | – | 1601.5
313.15 K, x1 = 0.6749 | – | 1598.6
313.15 K, x1 = 0.6932 | – | 1596.3
313.15 K, x1 = 0.7025 | 983 | –
313.15 K, x1 = 0.7095 | – | 1594.2
313.15 K, x1 = 0.7237 | – | 1592.4
313.15 K, x1 = 0.7448 | – | 1589.9
313.15 K, x1 = 0.7504 | 982.3 | –
313.15 K, x1 = 0.7666 | – | 1587.3
313.15 K, x1 = 0.7927 | 981.6 | –
313.15 K, x1 = 0.794 | – | 1584.1
313.15 K, x1 = 0.8188 | – | 1581.3
313.15 K, x1 = 0.8485 | – | 1578
313.15 K, x1 = 0.8605 | 980.4 | –
313.15 K, x1 = 0.875 | – | 1575.1
313.15 K, x1 = 0.9004 | 979.7 | –
313.15 K, x1 = 0.9027 | – | 1572.1
313.15 K, x1 = 0.9251 | – | 1569.5
313.15 K, x1 = 0.9471 | – | 1566.9
313.15 K, x1 = 0.9496 | 978.8 | –
313.15 K, x1 = 0.9652 | – | 1564.7
313.15 K, x1 = 0.9777 | – | 1563.1
313.15 K, x1 = 0.9877 | – | 1561.8
313.15 K, x1 = 0.9953 | – | 1560.8
313.15 K, x1 = 1 | 977.8 | 1560.2
318.15 K, x1 = 0.0005 | – | 1538
318.15 K, x1 = 0.0015 | – | 1540.6
318.15 K, x1 = 0.0027 | – | 1543.4
318.15 K, x1 = 0.0039 | – | 1546.4
318.15 K, x1 = 0.0049 | – | 1548.8
318.15 K, x1 = 0.0058 | – | 1550.9
318.15 K, x1 = 0.0069 | – | 1553.4
318.15 K, x1 = 0.008 | – | 1556
318.15 K, x1 = 0.0092 | – | 1558.5
318.15 K, x1 = 0.0106 | – | 1561.6
318.15 K, x1 = 0.0116 | – | 1563.7
318.15 K, x1 = 0.0129 | – | 1566.4
318.15 K, x1 = 0.0141 | – | 1568.7
318.15 K, x1 = 0.0154 | – | 1571.2
318.15 K, x1 = 0.0168 | – | 1573.9
318.15 K, x1 = 0.0184 | – | 1576.8
318.15 K, x1 = 0.0196 | – | 1578.9
318.15 K, x1 = 0.0215 | – | 1582.2
318.15 K, x1 = 0.0231 | – | 1584.8
318.15 K, x1 = 0.0246 | – | 1587.2
318.15 K, x1 = 0.0263 | – | 1589.8
318.15 K, x1 = 0.0283 | – | 1592.8
318.15 K, x1 = 0.0298 | – | 1594.9
318.15 K, x1 = 0.0316 | – | 1597.5
318.15 K, x1 = 0.0337 | – | 1600.2
318.15 K, x1 = 0.0357 | – | 1602.8
318.15 K, x1 = 0.0378 | – | 1605.4
318.15 K, x1 = 0.0403 | – | 1608.2
318.15 K, x1 = 0.043 | – | 1611.2
318.15 K, x1 = 0.0456 | – | 1613.9
318.15 K, x1 = 0.0487 | – | 1616.8
318.15 K, x1 = 0.0503 | – | 1618.2
318.15 K, x1 = 0.0516 | – | 1619.4
318.15 K, x1 = 0.0548 | – | 1622.1
318.15 K, x1 = 0.0584 | – | 1624.9
318.15 K, x1 = 0.0657 | – | 1629.8
318.15 K, x1 = 0.0682 | – | 1631.3
318.15 K, x1 = 0.072 | – | 1633.3
318.15 K, x1 = 0.0763 | – | 1635.4
318.15 K, x1 = 0.0796 | – | 1636.9
318.15 K, x1 = 0.0848 | – | 1639
318.15 K, x1 = 0.0893 | – | 1640.5
318.15 K, x1 = 0.0963 | – | 1642.5
318.15 K, x1 = 0.1022 | – | 1643.9
318.15 K, x1 = 0.1063 | – | 1644.7
318.15 K, x1 = 0.1107 | – | 1645.4
318.15 K, x1 = 0.1147 | – | 1646
318.15 K, x1 = 0.1186 | – | 1646.4
318.15 K, x1 = 0.1227 | – | 1646.8
318.15 K, x1 = 0.1267 | – | 1647.1
318.15 K, x1 = 0.1324 | – | 1647.4
318.15 K, x1 = 0.138 | – | 1647.6
318.15 K, x1 = 0.1421 | – | 1647.7
318.15 K, x1 = 0.1467 | – | 1647.7
318.15 K, x1 = 0.151 | – | 1647.7
318.15 K, x1 = 0.1559 | – | 1647.6
318.15 K, x1 = 0.1604 | – | 1647.4
318.15 K, x1 = 0.1642 | – | 1647.3
318.15 K, x1 = 0.1668 | – | 1647.1
318.15 K, x1 = 0.17 | – | 1647
318.15 K, x1 = 0.1746 | – | 1646.7
318.15 K, x1 = 0.1759 | – | 1646.6
318.15 K, x1 = 0.1805 | – | 1646.3
318.15 K, x1 = 0.1834 | – | 1646.1
